Laboratory results reported in patent US20230165811A1, “METHOD FOR TREATING SYMPTOMS OF VIRAL INFECTIONS” (priority 2020, published 2023).

System: Murine RAW 264.7 macrophages
Experiment: LPS-induced TNF-α production in RAW 264.7 macrophages (ELISA)
Format: cell-based
Settings: 1 μM compound for 1 h, then 1 μg/mL LPS, vs vehicle (DMSO), FIG. 1
Protocol: Murine RAW 264.7 macrophages (ATCC TIB-71) were cultured in Dulbecco's Modified Eagle's Medium supplemented with fetal bovine serum (FBS) at a final concentration of 10%. The cells were maintained in T75 flasks in humidified atmosphere with 5% CO2 at 37° C. Subculturing was performed every 2-3 days with a cellscraper.
RAW 264.7 macrophages were seeded onto 24-well plate in 1 mL of complete growth medium and left overnight to enable cell attachment. Next day the cells were washed with phosphate buffered saline and the medium was replaced with 0.5 mL of low serum medium containing 1% FBS. After 3 h of incubation, the medium was replaced with serum-free medium (0.5 mL) and incubated for 1.5 h. Then, the cells were exposed to 1 μM (R,R′)-4′-methoxy-1-naphthylfenoterol (MNF) or vehicle (DMSO) for 1 h followed by stimulation with 1 μg/mL lipopolysaccharide (LPS, E. coli 055: B5). Media were collected at the following timepoints after LPS administration: 0 h, 2 h, 4 h, 6 h, 8 h, and 10 h.
TNF-α was measured in all collected media samples using Quantikine ELISA kit (MTA00B) from R&D Systems according to manufacturer's protocol.
Statistical analysis Obtained data were assessed and plotted using GraphPad Prism 8.4.2. Two-way analysis of variance (ANOVA) followed by Sidak post-hoc test was used to compare mean TNF-α concentration across treatments and exposure times.

COc1ccc(C[C@@H](C)NC[C@H](O)c2cc(O)cc(O)c2)c2ccccc12 [(R,R′) MNF, (R,R′)-4′-methoxy-1-naphthylfenoterol]
inhibition of LPS-induced production of TNF-α (8 h timepoint after LPS): significant inhibition
inhibition of LPS-induced production of TNF-α (10 h timepoint after LPS): significant inhibition
